# Tests used:
# full length human TREX1 = biological target: T1, full length human TREX1 (Homo sapiens, UniProt Q9NSU2); experiment: hTREX1 Biochemical Assay (fluorescence, dsDNA substrate degradation); conditions: biochemical, read-out: hTREX1 IC50
# T1 construct: N-terminally His-Tev tagged full length human TREX1; made in house; host or cells: E. coli
# T1 sequence (Q9NSU2 1-314): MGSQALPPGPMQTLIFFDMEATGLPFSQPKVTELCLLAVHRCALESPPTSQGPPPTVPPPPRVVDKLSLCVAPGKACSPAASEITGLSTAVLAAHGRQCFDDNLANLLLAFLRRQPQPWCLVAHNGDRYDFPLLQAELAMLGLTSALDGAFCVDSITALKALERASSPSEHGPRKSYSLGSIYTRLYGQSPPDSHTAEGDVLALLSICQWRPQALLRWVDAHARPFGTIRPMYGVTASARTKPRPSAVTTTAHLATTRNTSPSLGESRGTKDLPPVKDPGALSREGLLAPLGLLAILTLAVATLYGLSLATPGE
# Procedure, shortened: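 Cleavage of 60 nM TEX615/quencher-labelled dsDNA in pH 7.4 Tris buffer with 5 mM MgCl2, 1.0% DMSO, run 18 hours at 25° C, EDTA-quenched; fluorescence read-out.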
# [1] = biological target: T2, human TREX2 (residues M44-A279) (Homo sapiens, UniProt Q9BQ50); experiment: hTREX2 Biochemical Assay (fluorescence, dsDNA substrate degradation); conditions: biochemical selectivity for hTREX1 vs hTREX2
# T2 construct: human TREX2 (residues M44-A279, expressed in E. coli); made in house; host or cells: E. coli
# T2 sequence (Q9BQ50 44-279 isoform Q9BQ50-1): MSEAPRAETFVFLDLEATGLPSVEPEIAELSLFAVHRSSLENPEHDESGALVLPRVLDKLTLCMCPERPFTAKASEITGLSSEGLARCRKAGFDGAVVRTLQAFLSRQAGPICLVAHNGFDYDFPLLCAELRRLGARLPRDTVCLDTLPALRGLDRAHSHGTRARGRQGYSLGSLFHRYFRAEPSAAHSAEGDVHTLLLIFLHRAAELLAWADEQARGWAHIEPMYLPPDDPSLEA
# Protocol: Degradation of the dsDNA liberates free fluorophore to produce a fluorescent signal. Specifically, 7.5 μL of N-terminally His-Tev tagged human TREX2 (residues M44-A279, expressed in E. coli and purified in house) in reaction buffer (50 mM Tris, 150 mM NaCl, 2 mM DTT, 0.1 mg/mL BSA, 0.01% (w/v) Tween-20, 5 mM MgCl2, pH 7.4) was added to a 384-well Black ProxiPlate Plus (PerkinElmer) which already contained compound (150 nL) at varying concentrations as a 10 point dose-response in DMSO. The plate was incubated at 25° C. for 4 hours. Reactions were initiated by adding 7.5 μL of dsDNA substrate (Strand A: 5′ TEX615/GCT AGG CAG 3′; Strand B: 5′ CTG CCT AGC/IAbRQSp (IDT)) in reaction buffer. Final concentrations were 50 pM TREX2, 60 nM dsDNA substrate in reaction buffer with 1.0% DMSO (v/v). After 18 hours at 25° C., reactions were quenched by the addition of 2 μL of 500 mM EDTA. Final concentrations in the quenched reaction mixture were 44 pM TREX2, 53 nM DNA and 59 mM EDTA in a volume of 17 μL. After a 5-minute incubation at room temperature, plates were read in an EnVision plate reader (PerkinElmer) measuring fluorescence at 615 nm following excitation w/570 nm light.
# full length mouse TREX1 = biological target: T3, full length mouse TREX1 (Mus musculus, UniProt Q91XB0); experiment: mTREX1 Biochemical Assay (fluorescence, dsDNA substrate degradation); conditions: biochemical, read-out: mTREX1 IC50
# T3 construct: N-terminally His-Tev tagged full length mouse TREX1; made in house; host or cells: E. coli
# T3 sequence (Q91XB0 1-314): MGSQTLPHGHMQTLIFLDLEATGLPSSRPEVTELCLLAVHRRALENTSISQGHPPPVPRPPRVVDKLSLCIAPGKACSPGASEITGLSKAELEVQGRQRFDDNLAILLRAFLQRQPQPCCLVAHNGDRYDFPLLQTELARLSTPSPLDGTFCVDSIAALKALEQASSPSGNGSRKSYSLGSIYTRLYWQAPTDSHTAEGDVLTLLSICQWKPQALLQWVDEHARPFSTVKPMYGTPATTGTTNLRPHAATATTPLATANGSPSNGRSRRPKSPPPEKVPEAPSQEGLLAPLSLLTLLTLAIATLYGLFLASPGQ
# Procedure, shortened: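 Reaction run 18 h at 25° C. with 60 nM TEX615/quencher-labelled dsDNA and 6 pM mouse TREX1 in Tris buffer (pH 7.4, 5 mM MgCl2, 1.0% DMSO), enzyme having sat 4 h with compound across 10 concentrations. EDTA quench; substrate degradation measured as fluorescence increase.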
SMILES,IC50 (full length human TREX1) [nM],hTREX1 vs hTREX2 selectivity [1],IC50 (full length mouse TREX1) [nM]
"CC(c1nc(C(=O)Nc2cnoc2)c(O)c(=O)n1C)C(c1cnn(C)c1)c1ccc(O)cc1C#N (single isomer, unassigned) [Example 80 D1E2]",> 10,C (C = >50 fold selective for hTREX1),> 10
"CC(c1nc(C(=O)Nc2cnoc2)c(O)c(=O)n1C)C(c1cnn(C)c1)c1ccc(O)cc1C#N (single isomer, unassigned) [Example 80 D2E2]",1 to 10,B (B = 25 to 50-fold selective for hTREX1),> 10
"Cc1ncc(C(c2ccccc2C#N)C(C)c2nc(C(=O)Nc3cnoc3)c(O)c(=O)n2C)nc1C (single isomer, unassigned) [Example 81 D1E1]",> 10,A (A = <25 fold selective for hTREX1),> 10
"Cc1ncc(C(c2ccccc2C#N)C(C)c2nc(C(=O)Nc3cnoc3)c(O)c(=O)n2C)nc1C (single isomer, unassigned) [Example 81 D2E2]",> 10,B (B = 25 to 50-fold selective for hTREX1),> 10
"Cc1cnc(C)c(C(c2ccccc2C#N)C(C)c2nc(C(=O)Nc3cnoc3)c(O)c(=O)n2C)n1 (single isomer, unassigned) [Example 82 D1E2]",> 10,B (B = 25 to 50-fold selective for hTREX1),> 10
"Cc1cnc(C)c(C(c2ccccc2C#N)C(C)c2nc(C(=O)Nc3cnoc3)c(O)c(=O)n2C)n1 (single isomer, unassigned) [Example 82 D2E2]",> 10,B (B = 25 to 50-fold selective for hTREX1),> 10
"Cc1nccc(C(c2ccccc2C#N)C(C)c2nc(C(=O)Nc3cnoc3)c(O)c(=O)n2C)n1 (single isomer, unassigned) [Example 83 D1E2]",> 10,A (A = <25 fold selective for hTREX1),> 10
"Cc1nccc(C(c2ccccc2C#N)C(C)c2nc(C(=O)Nc3cnoc3)c(O)c(=O)n2C)n1 (single isomer, unassigned) [Example 83 D2E2]",> 10,A (A = <25 fold selective for hTREX1),> 10
"CCn1cc(C(c2ccccc2Cl)C(C)c2nc(C(=O)Nc3cnoc3)c(O)c(=O)n2C)cn1 (single isomer, unassigned) [Example 85 D2E2]",> 10,A (A = <25 fold selective for hTREX1),> 10
"CC(c1nc(C(=O)Nc2cnoc2)c(O)c(=O)n1C)C(c1cnn(CC(C)(C)O)c1)c1ccccc1Cl (single isomer, unassigned) [Example 86 D1E2]",1 to 10,A (A = <25 fold selective for hTREX1),> 10
"CC(c1nc(C(=O)Nc2cnoc2)c(O)c(=O)n1C)C(c1cnn(CC(C)(C)O)c1)c1ccccc1Cl (single isomer, unassigned) [Example 86 D2E1]",> 10,A (A = <25 fold selective for hTREX1),> 10
"CC(c1nc(C(=O)Nc2cnoc2)c(O)c(=O)n1C)C(c1cnn(CC(C)(C)O)c1)c1ccccc1Cl (single isomer, unassigned) [Example 86 D2E2]",> 10,A (A = <25 fold selective for hTREX1),> 10
"CC(c1nc(C(=O)Nc2cnoc2)c(O)c(=O)n1C)C(c1cnn(CC2COC2)c1)c1ccccc1Cl (single isomer, unassigned) [Example 88 D1E2]",1 to 10,A (A = <25 fold selective for hTREX1),> 10
"CC(c1nc(C(=O)Nc2cnoc2)c(O)c(=O)n1C)C(c1cnn(CC2COC2)c1)c1ccccc1Cl (single isomer, unassigned) [Example 88 D2E1]",> 10,A (A = <25 fold selective for hTREX1),> 10
"CC(c1nc(C(=O)Nc2cnoc2)c(O)c(=O)n1C)C(c1cnn(CC2COC2)c1)c1ccccc1Cl (single isomer, unassigned) [Example 88 D2E2]",> 10,A (A = <25 fold selective for hTREX1),> 10
"CC(c1nc(C(=O)Nc2cnoc2)c(O)c(=O)n1C)C(c1cc(F)ccc1Cl)c1cn(C)nc1C#N (single isomer, unassigned) [Example 89 D1E1]",> 10,A (A = <25 fold selective for hTREX1),> 10
"CC(c1nc(C(=O)Nc2cnoc2)c(O)c(=O)n1C)C(c1cnn(CC(C)(C)O)c1)c1cc(F)ccc1Cl (single isomer, unassigned) [Example 92 D1E2]",1 to 10,A (A = <25 fold selective for hTREX1),> 10
"CC(c1nc(C(=O)Nc2cnoc2)c(O)c(=O)n1C)C(c1cnn(CC2COC2)c1)c1cc(F)ccc1Cl (single isomer, unassigned) [Example 94 D1E2]",> 10,A (A = <25 fold selective for hTREX1),> 10
"Cc1n[nH]c(C)c1C(c1ccccc1C#N)C(C)c1nc(C(=O)Nc2cnoc2)c(O)c(=O)n1C (single isomer, unassigned) [Example 95 D2E1]",> 10,A (A = <25 fold selective for hTREX1),> 10
"Cc1n[nH]c(C)c1C(c1ccccc1C#N)C(C)c1nc(C(=O)Nc2cnoc2)c(O)c(=O)n1C (single isomer, unassigned) [Example 95 D2E2]",> 10,A (A = <25 fold selective for hTREX1),> 10
"CC(c1nc(C(=O)Nc2cnoc2)c(O)c(=O)n1C)C(c1ccccc1Cl)c1cnn(C)c1C#N (single isomer, unassigned) [Example 96 D1E2]",> 10,A (A = <25 fold selective for hTREX1),> 10
"CC(c1nc(C(=O)Nc2cnoc2)c(O)c(=O)n1C)C(c1ccccc1Cl)c1cnn(C)c1C#N (single isomer, unassigned) [Example 96 D2E1]",> 10,A (A = <25 fold selective for hTREX1),> 10
"COCCn1cc(C(c2cc(F)ccc2Cl)C(C)c2nc(C(=O)Nc3cnoc3)c(O)c(=O)n2C)cn1 (single isomer, unassigned) [Example 97 D1E2]",1 to 10,A (A = <25 fold selective for hTREX1),> 10
"CC(c1nc(C(=O)Nc2cnoc2)c(O)c(=O)n1C)C(c1cnn(CCOC(F)(F)F)c1)c1cc(F)ccc1Cl (single isomer, unassigned) [Example 98 D1E2]",> 10,A (A = <25 fold selective for hTREX1),1 to 10
"CC(c1nc(C(=O)Nc2cnoc2)c(O)c(=O)n1C)C(c1cnn(CC(C)(C)C#N)c1)c1cc(F)ccc1Cl (single isomer, unassigned) [Example 99 D1E2]",1 to 10,B (B = 25 to 50-fold selective for hTREX1),1 to 10

# — patent publication US20240246946A1, “MODULATORS OF TREX1” (Constellation Pharmaceuticals, Inc., priority 2021, published 2024)
